Legend:
[1] = target: T1, Protein deacetylase HDAC6 (Homo sapiens, UniProt Q9UBN7); assay: Inhibition of HDAC6 (unknown origin) incubated for 30 mins by fluorescence based assay
T1 sequence (Q9UBN7 whole entry): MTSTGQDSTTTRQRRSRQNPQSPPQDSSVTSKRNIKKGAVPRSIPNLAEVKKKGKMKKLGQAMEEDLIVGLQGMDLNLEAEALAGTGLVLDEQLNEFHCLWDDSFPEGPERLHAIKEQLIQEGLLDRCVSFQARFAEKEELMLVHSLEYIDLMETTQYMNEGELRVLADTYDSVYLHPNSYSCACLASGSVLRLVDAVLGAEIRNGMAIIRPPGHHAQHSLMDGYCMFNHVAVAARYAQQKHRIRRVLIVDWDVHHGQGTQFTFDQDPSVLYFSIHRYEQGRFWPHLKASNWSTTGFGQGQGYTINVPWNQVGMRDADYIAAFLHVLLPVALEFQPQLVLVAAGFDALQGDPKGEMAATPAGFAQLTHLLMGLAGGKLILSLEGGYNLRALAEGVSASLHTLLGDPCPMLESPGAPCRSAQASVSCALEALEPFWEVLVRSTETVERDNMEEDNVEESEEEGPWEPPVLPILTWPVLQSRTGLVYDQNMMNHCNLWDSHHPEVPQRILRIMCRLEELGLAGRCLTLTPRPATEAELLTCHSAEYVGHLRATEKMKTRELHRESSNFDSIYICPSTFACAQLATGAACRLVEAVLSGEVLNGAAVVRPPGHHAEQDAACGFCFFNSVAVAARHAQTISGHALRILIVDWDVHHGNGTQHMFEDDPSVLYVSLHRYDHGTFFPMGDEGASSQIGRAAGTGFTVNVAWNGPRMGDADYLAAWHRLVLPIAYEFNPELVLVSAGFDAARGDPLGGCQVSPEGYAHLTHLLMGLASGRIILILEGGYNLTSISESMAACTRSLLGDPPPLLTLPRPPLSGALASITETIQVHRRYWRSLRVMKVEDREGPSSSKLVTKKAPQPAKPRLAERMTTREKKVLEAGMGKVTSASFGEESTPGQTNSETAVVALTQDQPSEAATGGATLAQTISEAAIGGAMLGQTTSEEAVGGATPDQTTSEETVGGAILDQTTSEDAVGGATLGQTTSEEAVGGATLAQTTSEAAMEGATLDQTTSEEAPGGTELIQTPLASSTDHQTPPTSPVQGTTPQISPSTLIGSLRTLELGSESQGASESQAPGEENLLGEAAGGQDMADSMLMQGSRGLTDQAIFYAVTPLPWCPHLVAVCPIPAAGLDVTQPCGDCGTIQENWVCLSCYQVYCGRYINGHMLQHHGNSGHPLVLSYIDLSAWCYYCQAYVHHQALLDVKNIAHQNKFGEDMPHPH

Histone deacetylase 1 [2] = target: T2, Histone deacetylase 1 (Homo sapiens, UniProt Q13547); assay: Inhibition of HDAC1 (unknown origin) incubated for 30 mins by fluorescence based assay
T2 sequence (Q13547 whole entry): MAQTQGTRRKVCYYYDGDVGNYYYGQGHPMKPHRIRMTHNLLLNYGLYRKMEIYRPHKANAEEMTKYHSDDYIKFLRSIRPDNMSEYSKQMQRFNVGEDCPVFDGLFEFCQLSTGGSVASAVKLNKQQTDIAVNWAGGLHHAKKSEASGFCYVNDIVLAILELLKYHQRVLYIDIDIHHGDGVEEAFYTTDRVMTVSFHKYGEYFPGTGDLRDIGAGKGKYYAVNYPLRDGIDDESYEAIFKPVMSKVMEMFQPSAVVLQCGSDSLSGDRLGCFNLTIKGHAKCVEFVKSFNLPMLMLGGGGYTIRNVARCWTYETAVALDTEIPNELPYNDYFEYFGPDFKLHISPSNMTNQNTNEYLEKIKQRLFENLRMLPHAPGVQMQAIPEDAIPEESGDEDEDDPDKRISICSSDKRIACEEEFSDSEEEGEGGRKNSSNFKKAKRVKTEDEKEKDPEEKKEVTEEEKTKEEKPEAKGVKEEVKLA

[3] = target: T1, Protein deacetylase HDAC6; assay: Inhibition of HDAC6 derived from human HeLa cell nuclear extract using Boc-Lys(Ac)-AMC as substrate by fluorescence based assay; assay type: cell-free
Histone deacetylase 1 [4] = target: T2, Histone deacetylase 1; assay: Inhibition of HDAC1 derived from human HeLa cell nuclear extract using Boc-Lys(Ac)-AMC as substrate by fluorescence based assay; assay type: cell-free
[5] = target: T3, von Hippel-Lindau disease tumor suppressor/Histone deacetylase 3 (Homo sapiens, UniProt O15379+P40337); assay: PROTAC activity at VHL/HDAC3 in human MDA-MB-468 cells assessed as induction of HDAC3 degradation incubated for 14 hrs by Western blot analysis; assay type: cell-based
Target sequence in this assay (O15379 whole entry): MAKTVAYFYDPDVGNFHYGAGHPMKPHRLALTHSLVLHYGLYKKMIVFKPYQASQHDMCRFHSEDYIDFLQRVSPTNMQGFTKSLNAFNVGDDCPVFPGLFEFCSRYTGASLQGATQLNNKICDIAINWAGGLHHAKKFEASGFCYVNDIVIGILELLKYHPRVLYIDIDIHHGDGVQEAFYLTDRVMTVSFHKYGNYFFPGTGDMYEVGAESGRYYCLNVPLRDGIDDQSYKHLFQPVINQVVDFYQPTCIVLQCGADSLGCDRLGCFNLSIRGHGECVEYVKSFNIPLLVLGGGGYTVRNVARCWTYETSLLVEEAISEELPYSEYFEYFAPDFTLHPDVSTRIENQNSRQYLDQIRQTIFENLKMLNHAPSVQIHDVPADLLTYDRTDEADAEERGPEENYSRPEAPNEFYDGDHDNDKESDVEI
Target sequence in this assay (P40337 whole entry): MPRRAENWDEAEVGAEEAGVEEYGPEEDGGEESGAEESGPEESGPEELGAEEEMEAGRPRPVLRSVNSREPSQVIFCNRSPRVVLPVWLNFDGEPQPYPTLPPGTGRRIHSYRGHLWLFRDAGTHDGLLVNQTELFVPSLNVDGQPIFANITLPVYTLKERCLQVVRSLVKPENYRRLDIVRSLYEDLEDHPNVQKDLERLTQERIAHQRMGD

[6] = target: T4, von Hippel-Lindau disease tumor suppressor/Histone deacetylase 1 (Homo sapiens, UniProt P40337+Q13547); assay: PROTAC activity at VHL/HDAC1 (unknown origin) by cell based assay
T4 sequence (Q13547 whole entry): as the sequence (Q13547 whole entry) above
T4 sequence (P40337 whole entry): as the sequence (P40337 whole entry) above

[7] = target: von Hippel-Lindau disease tumor suppressor/Histone deacetylase 2 (Homo sapiens, UniProt P40337+Q92769); assay: PROTAC activity at VHL/HDAC2 (unknown origin) by cell based assay
von Hippel-Lindau disease tumor suppressor/Histone deacetylase 2, sequence (Q92769 whole entry): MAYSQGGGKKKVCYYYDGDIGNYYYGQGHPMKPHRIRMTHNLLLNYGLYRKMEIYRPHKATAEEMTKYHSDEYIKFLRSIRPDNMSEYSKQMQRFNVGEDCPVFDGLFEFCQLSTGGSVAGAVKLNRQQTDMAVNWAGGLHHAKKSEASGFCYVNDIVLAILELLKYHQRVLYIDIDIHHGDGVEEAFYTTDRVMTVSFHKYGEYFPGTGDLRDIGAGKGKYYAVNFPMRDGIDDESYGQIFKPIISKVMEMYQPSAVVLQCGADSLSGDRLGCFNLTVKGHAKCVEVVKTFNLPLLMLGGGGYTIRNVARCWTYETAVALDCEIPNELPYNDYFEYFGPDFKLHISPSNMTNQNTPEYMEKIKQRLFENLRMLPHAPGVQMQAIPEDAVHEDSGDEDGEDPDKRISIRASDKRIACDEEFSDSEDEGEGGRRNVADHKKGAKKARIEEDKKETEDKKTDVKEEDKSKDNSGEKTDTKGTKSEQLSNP
von Hippel-Lindau disease tumor suppressor/Histone deacetylase 2, sequence (P40337 whole entry): as the sequence (P40337 whole entry) above

[8] = target: T3, von Hippel-Lindau disease tumor suppressor/Histone deacetylase 3; assay: PROTAC activity at VHL/HDAC3 (unknown origin) by cell based assay
Target sequence in this assay (O15379 whole entry): as the sequence (O15379 whole entry) above
Target sequence in this assay (P40337 whole entry): as the sequence (P40337 whole entry) above

Histone deacetylase 1 [9] = target: T2, Histone deacetylase 1; assay: Inhibition of recombinant human HDAC1 using fluorogenic acetylated peptide substrate incubated for 30 mins by microplate reader analysis
Homo sapiens = species on record: Homo sapiens; assay: Selectivity ratio of IC50 for recombinant human HDAC6 to IC50 for recombinant human HDAC1
HeLa = assay: Antiproliferative activity against human HeLa cells assessed as cell growth inhibition incubated for 48 hrs by MTT assay; assay type: functional, cell-based
Histone deacetylase 1 [10] = target: T2, Histone deacetylase 1; assay: Inhibition of HDAC1 (unknown origin) using fluorimetric substrate incubated for 30 mins by fluorogenic assay
[11] = target: Protein cereblon/Histone deacetylase 1 (Homo sapiens, UniProt Q13547+Q96SW2); assay: PROTAC activity at CRBN/HDAC1 (unknown origin) by cell based assay
Protein cereblon/Histone deacetylase 1, sequence (Q13547 whole entry): as the sequence (Q13547 whole entry) above
Protein cereblon/Histone deacetylase 1, sequence (Q96SW2 whole entry): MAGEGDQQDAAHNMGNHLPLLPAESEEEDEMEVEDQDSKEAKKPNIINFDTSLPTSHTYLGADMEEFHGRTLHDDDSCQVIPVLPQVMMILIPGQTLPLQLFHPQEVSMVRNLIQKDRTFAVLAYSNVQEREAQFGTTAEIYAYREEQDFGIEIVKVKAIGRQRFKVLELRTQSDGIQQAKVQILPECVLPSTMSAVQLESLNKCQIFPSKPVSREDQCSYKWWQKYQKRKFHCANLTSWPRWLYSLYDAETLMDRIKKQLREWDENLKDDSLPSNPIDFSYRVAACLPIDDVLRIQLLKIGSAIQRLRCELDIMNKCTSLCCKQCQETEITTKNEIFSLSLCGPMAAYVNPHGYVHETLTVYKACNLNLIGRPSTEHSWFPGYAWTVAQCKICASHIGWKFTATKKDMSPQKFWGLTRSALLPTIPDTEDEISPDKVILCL

[12] = target: Protein cereblon/Histone deacetylase 2 (Homo sapiens, UniProt Q92769+Q96SW2); assay: PROTAC activity at CRBN/HDAC2 (unknown origin) by cell based assay
Protein cereblon/Histone deacetylase 2, sequence (Q92769 whole entry): as the sequence (Q92769 whole entry) above
Protein cereblon/Histone deacetylase 2, sequence (Q96SW2 whole entry): as the sequence (Q96SW2 whole entry) above

[13] = target: Protein cereblon/Histone deacetylase 3 (Homo sapiens, UniProt O15379+Q96SW2); assay: PROTAC activity at CRBN/HDAC3 (unknown origin) by cell based assay
Protein cereblon/Histone deacetylase 3, sequence (O15379 whole entry): as the sequence (O15379 whole entry) above
Protein cereblon/Histone deacetylase 3, sequence (Q96SW2 whole entry): as the sequence (Q96SW2 whole entry) above

[14] = target: Protein cereblon/Protein deacetylase HDAC6 (Homo sapiens, UniProt Q96SW2+Q9UBN7); assay: PROTAC activity at CRBN/HDAC6 (unknown origin) by cell based assay
Protein cereblon/Protein deacetylase HDAC6, sequence (Q96SW2 whole entry, one chain of several): as the sequence (Q96SW2 whole entry) above

[15] = Inhibition of His-tagged recombinant human HDAC1 expressed in baculovirus infected insect cells using SIRT1 deacetylase substrate incubated for 30 mins by Luminescence Glo assay
[16] = target: T4, von Hippel-Lindau disease tumor suppressor/Histone deacetylase 1; assay: PROTAC activity at VHL/LSD1/HDAC1/CoREST complex interaction (unknown origin) assessed as induction of HDAC1 degradation using Boc-(Ac)Lys-AMC as substrate incubated for 20 mins by fluorescence based assay
[17] = target: von Hippel-Lindau disease tumor suppressor/Histone deacetylase 1 (Homo sapiens) (UniProt Q13547+P40337); assay: PROTAC activity at VHL/HDAC1 in human HCT-116 cells assessed as induction of HDAC1 degradation at 1 uM incubated for 24 hrs by Western blot analysis relative to control; assay type: cell-based
von Hippel-Lindau disease tumor suppressor/Histone deacetylase 1 (Homo sapiens), sequence (P40337 whole entry, looked up): as the sequence (P40337 whole entry) above
von Hippel-Lindau disease tumor suppressor/Histone deacetylase 1 (Homo sapiens), sequence (Q13547 whole entry, looked up): as the sequence (Q13547 whole entry) above

[18] = target: von Hippel-Lindau disease tumor suppressor/Histone deacetylase 2 (Homo sapiens) (UniProt Q92769+P40337); assay: PROTAC activity at VHL/HDAC2 in human HCT-116 cells assessed as induction of HDAC1 degradation at 1 uM incubated for 24 hrs by Western blot analysis relative to control; assay type: cell-based
von Hippel-Lindau disease tumor suppressor/Histone deacetylase 2 (Homo sapiens), sequence (P40337 whole entry, looked up): as the sequence (P40337 whole entry) above
von Hippel-Lindau disease tumor suppressor/Histone deacetylase 2 (Homo sapiens), sequence (Q92769 whole entry, looked up): as the sequence (Q92769 whole entry) above

[19] = target: T3, von Hippel-Lindau disease tumor suppressor/Histone deacetylase 3; assay: PROTAC activity at VHL/HDAC3 in human HCT-116 cells assessed as induction of HDAC1 degradation at 1 uM incubated for 24 hrs by Western blot analysis relative to control; assay type: cell-based
Target sequence in this assay (O15379 whole entry, looked up): as the sequence (O15379 whole entry) above
Target sequence in this assay (P40337 whole entry, looked up): as the sequence (P40337 whole entry) above

Histone deacetylase 1 [20] = target: T2, Histone deacetylase 1; assay: Inhibition of recombinant human HDAC1 using fluorescent deacetylated substrate incubated for 15 mins by fluorescence based assay
Histone deacetylase 2 = Histone deacetylase 2 (Homo sapiens, UniProt Q92769); assay: Inhibition of recombinant human HDAC2 using fluorescent green substrate incubated for 30 mins by fluorescence based assay
Histone deacetylase 2, sequence (Q92769 whole entry): as the sequence (Q92769 whole entry) above

[21] = Inhibition of recombinant human HDAC3/NCOR1 using fluorescent deacetylated substrate incubated for 15 mins by fluorescence based assay

Compound: O=C(CCCCCCC(=O)Nc1nc2c(s1)C[C@@H](NC(=O)c1cccc3ccccc13)CC2)NO
- IC50 [1]: 4.6 nM
- IC50 (Histone deacetylase 1 [2]): 1.4 nM

Compound: CC(C)n1cnc2c(-c3cccc(OCCCC(=O)NO)c3)nc(N3CCOCC3)nc21
- IC50 [3]: 24 nM
- IC50 (Histone deacetylase 1 [4]): 82 nM

Compound: CCCNNC(=O)c1ccc(-c2ccc(NC(=O)CCCCCCC(=O)N[C@H](C(=O)N3C[C@H](O)C[C@H]3C(=O)N[C@@H](C)c3ccc(-c4scnc4C)cc3)C(C)(C)C)cc2)cc1
- EC50 [5]: 42 nM
- IC50 [6]: 650 nM
- IC50 [7]: 1550 nM
- IC50 [8]: 350 nM

Compound: COc1ccc2cc(C(=O)Oc3cccc(/C=C/C(=O)NO)c3)c(=O)oc2c1
- IC50 (Histone deacetylase 1 [9]): 190 nM
- Ratio IC50 (Homo sapiens): 26
- IC50 (HeLa): 230 nM

Compound: Cc1ccc(C(=O)Nc2nc(C(=O)NO)co2)cc1
- IC50 (Histone deacetylase 1 [10]): 10 nM

Compound: O=C(CCCCCCNC(=O)c1ccc(NC(=O)COCCOCCNC(=O)COc2cccc3c2C(=O)N(C2CCC(=O)NC2=O)C3=O)cc1)NO (centres undefined)
- IC50 [11]: 174 nM
- IC50 [12]: 248 nM
- IC50 [13]: 27 nM
- IC50 [14]: 27 nM

Compound: CCCCNNC(=O)c1ccc(-c2ccccc2)cc1
- IC50 [15]: 90 nM

Compound: Cc1ncsc1-c1ccc(CNC(=O)[C@@H]2C[C@@H](O)CN2C(=O)[C@@H](NC(=O)CCCCCCCCCCC(=O)Nc2ccc(C(=O)Nc3ccccc3N)cc2)C(C)(C)C)cc1
- IC50 [16]: 16.8 µM
- Activity [17]: 50%
- Activity [18]: 50%
- Activity [19]: 50%

Compound: Nc1ccccc1NC(=O)c1ccc2ncccc2c1
- IC50 (Histone deacetylase 1 [20]): 18.7 µM
- IC50 (Histone deacetylase 2): 26 µM
- IC50 [21]: 560 nM
